Experimental findings from ChEMBL document CHEMBL1135938, “Synthesis of N-[4-[1-ethyl-2-(2,4-diaminofuro[2,3-d]pyrimidin-5-yl)ethyl]benzoyl]-L-glutamic acid as an antifolate” (J Med Chem, 2002) are described below.

The term EC50 denotes the concentration that produces a half-maximal response. High values mean weaker potency, low ones greater potency. As usually defined, the GI50 is the concentration at which growth is held to half of that of the control. Usually IC50 stands for the concentration that inhibits the measured activity by half. A word on the Km: it is the concentration of substrate that gives half-maximal velocity.

Some results are limits rather than exact numbers.

Data set [1] is described as follows: Inhibition of growth of R30dm (n=2). It is filed as functional, Homo sapiens.
Data set [2] concerns R2. The experiment in a line: Inhibition of growth of R2 (n=2). The settings on record: Homo sapiens. It counts as functional, cell-based.
Data set [3] has as its system R1. The experiment in a line: Inhibition of growth of R1 (n=2). The settings on record: Homo sapiens.
The subject of a further data set is SF-539. In words: Inhibition of growth of SF-539 CNS cancer cell line. It is filed as functional. Particulars: Homo sapiens.
The subject of another data set is SF-268. The experiment in a line: Inhibition of growth of SF-268 CNS cancer cell line. It is filed as functional. Particulars: Homo sapiens.
Another data set concerns HT-29. The experiment in a line: Inhibition of growth of HT 29colon cancer cell line. It counts as functional. Particulars: Homo sapiens.
The target of data set [4] is Dihydrofolate reductase (Escherichia coli, UniProt P0ABQ4). The experiment in a line: Inhibition of Escherichia coli dihydrofolate reductase (DHFR).
Sequence of Dihydrofolate reductase (Escherichia coli, UniProt P0ABQ4) (P0ABQ4 whole entry): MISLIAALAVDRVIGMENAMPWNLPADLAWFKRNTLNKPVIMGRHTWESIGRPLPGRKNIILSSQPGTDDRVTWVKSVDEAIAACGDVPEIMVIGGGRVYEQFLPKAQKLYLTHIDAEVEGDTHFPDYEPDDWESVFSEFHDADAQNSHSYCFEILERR
The target in data set [5] is Dihydrofolate reductase (Homo sapiens, UniProt P00374).
Sequence of Dihydrofolate reductase (Homo sapiens, UniProt P00374) (P00374 whole entry): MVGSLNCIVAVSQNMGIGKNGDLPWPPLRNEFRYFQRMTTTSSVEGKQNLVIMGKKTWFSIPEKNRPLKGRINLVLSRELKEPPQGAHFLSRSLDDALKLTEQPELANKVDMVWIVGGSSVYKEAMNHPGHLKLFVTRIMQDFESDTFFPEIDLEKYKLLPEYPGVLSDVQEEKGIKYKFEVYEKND
The subject of another data set is OVCAR-5. In words: Inhibition of growth of OVCAR-5 ovarian cancer cell line. It counts as functional. The settings on record: Homo sapiens.
For data set [6], the target named is Thymidylate synthase (Homo sapiens, UniProt P04818). The experiment in a line: Inhibition of recombinant human thymidylate synthase (TS).
Sequence of Thymidylate synthase (Homo sapiens, UniProt P04818) (P04818 whole entry): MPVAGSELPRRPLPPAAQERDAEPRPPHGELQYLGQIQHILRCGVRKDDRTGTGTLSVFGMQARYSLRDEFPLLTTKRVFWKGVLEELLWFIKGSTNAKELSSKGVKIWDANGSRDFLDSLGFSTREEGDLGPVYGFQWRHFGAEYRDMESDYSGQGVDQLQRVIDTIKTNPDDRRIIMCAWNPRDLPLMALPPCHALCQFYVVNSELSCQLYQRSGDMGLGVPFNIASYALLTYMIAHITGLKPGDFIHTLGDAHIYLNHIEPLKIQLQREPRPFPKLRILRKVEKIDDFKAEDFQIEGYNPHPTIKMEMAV
The next data set concerns A549. The experiment in a line: Inhibition of growth of A549/ATCC nonsmall cell lung cancer cell line. It is filed as functional. Particulars: Homo sapiens.
Another data set has as its system K562. The experiment in a line: Inhibition of growth of K-562 leukemia cell line. It counts as functional. The settings on record: Homo sapiens.
The target in data set [7] is Bifunctional dihydrofolate reductase-thymidylate synthase (Toxoplasma gondii, UniProt Q07422). The experiment in a line: Inhibition of Toxoplasma gondii dihydrofolate reductase (DHFR).
Sequence of Bifunctional dihydrofolate reductase-thymidylate synthase (Q07422 whole entry): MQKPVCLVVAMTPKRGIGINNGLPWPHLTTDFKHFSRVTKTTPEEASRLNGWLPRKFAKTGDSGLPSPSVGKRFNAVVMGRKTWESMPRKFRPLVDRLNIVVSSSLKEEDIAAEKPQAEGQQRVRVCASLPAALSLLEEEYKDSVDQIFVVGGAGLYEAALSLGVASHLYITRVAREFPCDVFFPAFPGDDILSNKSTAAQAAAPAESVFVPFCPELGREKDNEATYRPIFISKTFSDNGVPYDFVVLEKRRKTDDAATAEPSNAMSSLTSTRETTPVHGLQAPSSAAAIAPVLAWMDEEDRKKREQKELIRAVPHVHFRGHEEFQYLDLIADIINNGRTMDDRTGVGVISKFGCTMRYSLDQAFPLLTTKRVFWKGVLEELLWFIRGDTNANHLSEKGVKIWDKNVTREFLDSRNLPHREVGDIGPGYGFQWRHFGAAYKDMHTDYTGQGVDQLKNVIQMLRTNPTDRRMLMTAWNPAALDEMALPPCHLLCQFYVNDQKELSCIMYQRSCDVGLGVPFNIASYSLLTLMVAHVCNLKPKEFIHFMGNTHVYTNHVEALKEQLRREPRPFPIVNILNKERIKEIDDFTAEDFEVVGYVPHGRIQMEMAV
In data set [8] the test system is CCRF-CEM. In words: Inhibition of growth of CCRF-CEM human leukemia cells (n=2). It counts as functional, cell-based.
For another data set, the system named is LOX IMVI. The experiment in a line: Inhibition of growth of LOX IMVI melanoma cell line. It counts as functional. The settings on record: Homo sapiens.
The test system of a further data set is ACHN. The experiment in a line: Inhibition of growth of ACHN renal cancer cell line. It is filed as functional. The settings on record: Homo sapiens.
Data set [9] can be described thus: Inhibition of growth of IGROV1 ovarian cancer cell line. It counts as functional. The settings on record: Homo sapiens, IGROV-1.
The next data set relates to MDA-N. In words: Inhibition of growth of MDA-Nbreast cancer cell line. It counts as functional. Particulars: Homo sapiens.
For a further data set, the system named is MDA-MB-435. The experiment in a line: Inhibition of growth of MDA-MB-435 breast cancer cell line. It is filed as functional. Particulars: Homo sapiens.
The test system of a further data set is SR. In words: Inhibition of growth of SR leukemia cell line. Particulars: Homo sapiens. It counts as functional.
A further data set deals with U-251. The experiment in a line: Inhibition of growth of U251 CNS cancer cell line. It counts as functional. The settings on record: Homo sapiens.
Data set [10] deals with R2. The experiment in a line: Inhibition of growth of R2(n=2). Particulars: Homo sapiens. It is filed as functional, cell-based.
The next data set deals with TK-10. The experiment in a line: Inhibition of growth of TK-10 renal cancer cell line. Particulars: Homo sapiens. It counts as functional.
Another data set has as its system SW-620. In words: Inhibition of growth of SW -620 colon cancer cell line. It counts as functional. The settings on record: Homo sapiens.
A further data set has as its system RPMI-8226. In words: Inhibition of growth of RPMI-8226 leukemia cell line. It counts as functional. Particulars: Homo sapiens.
The next data set has as its system NCI-H460. The experiment in a line: Inhibition of growth of NCI-H460 nonsmall cell lung cancer cell line. It counts as functional. The settings on record: Homo sapiens.
The next data set deals with HCT-15. In words: Inhibition of growth of HCT -15 colon cancer cell line. It is filed as functional. Particulars: Homo sapiens.
The subject of a further data set is MCF7. The experiment in a line: Inhibition of growth of MCF-7 breast cancer cell line. It counts as functional. Particulars: Homo sapiens.
The subject of the next data set is SK-MEL-5. In words: Inhibition of growth of SK-MEL5 melanoma cell line. It is filed as functional. The settings on record: Homo sapiens.
Data set [11] relates to CCRF-CEM. The experiment in a line: Inhibition of growth of CCRF-CEM leukemia cell line. It counts as functional. The settings on record: Homo sapiens.
Another data set relates to UO-31. In words: Inhibition of growth of UO-31 renal cancer cell line. The settings on record: Homo sapiens. It is filed as functional.
A further data set deals with NCI-H522. In words: Inhibition of growth of NCI- H522 nonsmall cell lung cancer cell line. It counts as functional. The settings on record: Homo sapiens.
In data set [12] the test system is R1. In words: Inhibition of growth of R1(n=2). Particulars: Homo sapiens.
In the next data set the test system is SF-295. The experiment in a line: Inhibition of growth of SF-295 CNS cancer cell line. It is filed as functional. Particulars: Homo sapiens.
Another data set concerns CAKI-1. The experiment in a line: Inhibition of growth of CAKI-1 renal cancer cell line. It counts as functional. Particulars: Homo sapiens.
The next data set relates to HL-60. The experiment in a line: Inhibition of growth of HL-60 leukemia cell line. It is filed as functional. Particulars: Homo sapiens.
In data set [13] the target is Thymidylate synthase (Escherichia coli, UniProt C3SWJ7). The experiment in a line: Inhibition of Escherichia coli thymidylate synthase (TS).
Sequence of Thymidylate synthase (Escherichia coli, UniProt C3SWJ7) (C3SWJ7 whole entry): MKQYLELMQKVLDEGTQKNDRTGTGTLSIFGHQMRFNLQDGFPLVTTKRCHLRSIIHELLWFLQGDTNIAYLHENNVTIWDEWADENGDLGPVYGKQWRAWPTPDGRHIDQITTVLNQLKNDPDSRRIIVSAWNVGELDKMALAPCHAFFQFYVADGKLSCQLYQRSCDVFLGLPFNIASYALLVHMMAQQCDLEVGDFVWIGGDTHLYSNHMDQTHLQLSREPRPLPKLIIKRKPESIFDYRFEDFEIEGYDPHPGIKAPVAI
Substrate in data set [14]: CCC(Cc1coc2nc(N)cc(N)c12)c1ccc(C(=O)NC(CCC(=O)O)C(=O)O)cc1
In words: folyl-poly-glutamate synthetase activity measured as Vmax.

Substrate in data set [15]: Nc1nc(N)c2nc(CNc3ccc(C(=O)N[C@@H](CCC(=O)O)C(=O)O)cc3)cnc2n1
The experiment in a line: (§1) folyl-poly-glutamate synthetase activity measured as Km.

Substrate in data set [16]: CCC(Cc1coc2nc(N)cc(N)c12)c1ccc(C(=O)NC(CCC(=O)O)C(=O)O)cc1
The description is as §1.

Substrate in data set [17]: Nc1nc(N)c2nc(CNc3ccc(C(=O)N[C@@H](CCC(=O)O)C(=O)O)cc3)cnc2n1
The experiment in a line: folyl-poly-glutamate synthetase activity measured as Vmax; rel means relative.

Take `CN(Cc1cnc2nc(N)nc(N)c2n1)c1ccc(C(=O)N[C@@H](CCC(=O)O)C(=O)O)cc1` [METHOTREXATE]: the EC50 in [1] stood at 15 nM; with R2 [2] it was 2600 nM; in the data set with R1 [3], 1050 nM.
For `CCC(Cc1coc2nc(N)cc(N)c12)c1ccc(C(=O)NC(CCC(=O)O)C(=O)O)cc1` (configuration not stated), the GI50 in the data set with SF-539 was < 10 nM; in the data set on SF-268, < 10 nM; in the data set on HT-29, 23.9 nM; in the data set on OVCAR-5, < 10 nM; in the data set with A549, 13.8 nM; in the data set on K562 it was < 10 nM. For the same molecule, the GI50 was 23.7 nM with LOX IMVI; < 10 nM in the data set with ACHN; < 10 nM in [9]; < 10 nM with MDA-N; < 10 nM in the data set with MDA-MB-435; < 10 nM in the data set on SR. The GI50 with U-251 is 23.2 nM; in the data set on TK-10 it was 340 nM; with SW-620 it was < 10 nM; with RPMI-8226, < 10 nM; in the data set on NCI-H460, < 10 nM; in the data set on HCT-15, < 10 nM. Further, the GI50 with MCF7 was < 10 nM; in the data set with SK-MEL-5 it was 81.8 nM; in the data set on CCRF-CEM [11], < 10 nM; in the data set on UO-31, < 10 nM; with NCI-H522 it was < 10 nM; in the data set on SF-295 it was < 10 nM. Moreover, the GI50 with CAKI-1 and in the data set with HL-60 was < 10 nM in each case. The IC50 was 440 nM against Dihydrofolate reductase [4]; 220 nM against Dihydrofolate reductase [5]; 220000 nM at Thymidylate synthase [6]; 1100 nM in [7]; 220000 nM against Thymidylate synthase [13]. For the same molecule, the EC50 in data set [1] was 50 nM; in the data set with CCRF-CEM [8], 35.5 nM; in the data set with R2 [10], 890 nM; in the data set on R1 [12], 2100 nM.

B1: Folylpolyglutamate synthase, mitochondrial (Homo sapiens), Q05932 (protein)
chain: MSRARSHLRAALFLAAASARGITTQVAARRGLSAWPVPQEPSMEYQDAVRMLNTLQTNAGYLEQVKRQRGDPQTQLEAMELYLARSGLQVEDLDRLNIIHVTGTKGKGSTCAFTECILRSYGLKTGFFSSPHLVQVRERIRINGQPISPELFTKYFWRLYHRLEETKDGSCVSMPPYFRFLTLMAFHVFLQEKVDLAVVEVGIGGAYDCTNIIRKPVVCGVSSLGIDHTSLLGDTVEKIAWQKGGIFKQGVPAFTVLQPEGPLAVLRDRAQQISCPLYLCPMLEALEEGGPPLTLGLEGEHQRSNAALALQLAHCWLQRQDRHGAGEPKASRPGLLWQLPLAPVFQPTSHMRLGLRNTEWPGRTQVLRRGPLTWYLDGAHTASSAQACVRWFRQALQGRERPSGGPEVRVLLFNATGDRDPAALLKLLQPCQFDYAVFCPNLTEVSSTGNADQQNFTVTLDQVLLRCLEHQQHWNHLDEEQASPDLWSAPSPEPGGSASLLLAPHPPHTCSASSLVFSCISHALQWISQGRDPIFQPPSPPKGLLTHPVAHSGASILREAAAIHVLVTGSLHLVGGVLKLLEPALSQ
Regarding B1, the Vmax in data set [14] was 0.37 rel; in [17], 1 rel. For the same molecule, the Km in [15] was 3.2 µM; in data set [16], 1.1 µM.
